Results: patent publication US20250382274A1, “COMPOSITIONS AND METHODS FOR THE TREATMENT OF PARKINSON'S AND GAUCHER DISEASE” (CHILDREN'S HOSPITAL MEDICAL CENTER, priority 2024, published 2025)
Where a chain is given by its changes, count along the chain named.

Legend:
[1] = biological target: T1, GCase (purified enzyme, Velaglucerase alfa, VPRIV) (Homo sapiens, UniProt P04062); test: GCase AC50 enzyme activity assay; format: biochemical; conditions: pH 5.6, 4-MuGlu substrate, compounds 0-40 μM
T1 construct: purchased Shire Human Genetic Therapies, Cambridge, MA
T1 sequence (P04062 40-536): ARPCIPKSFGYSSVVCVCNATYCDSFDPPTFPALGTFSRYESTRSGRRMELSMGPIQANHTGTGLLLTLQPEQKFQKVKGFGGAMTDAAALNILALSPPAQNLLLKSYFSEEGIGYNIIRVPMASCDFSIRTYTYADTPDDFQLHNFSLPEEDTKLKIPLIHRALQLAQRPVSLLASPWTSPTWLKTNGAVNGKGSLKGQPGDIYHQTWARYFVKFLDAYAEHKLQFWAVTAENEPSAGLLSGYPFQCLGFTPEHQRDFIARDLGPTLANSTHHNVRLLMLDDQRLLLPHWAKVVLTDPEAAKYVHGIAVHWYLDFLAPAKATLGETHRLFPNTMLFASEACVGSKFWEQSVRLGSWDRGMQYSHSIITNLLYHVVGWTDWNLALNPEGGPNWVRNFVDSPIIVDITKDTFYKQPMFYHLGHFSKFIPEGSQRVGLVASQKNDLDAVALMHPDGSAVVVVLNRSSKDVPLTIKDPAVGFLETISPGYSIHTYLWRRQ
Description: An in vitro enzyme assay was performed through a dose response curve of Compounds (0-40 μM) with purified enzyme (Velaglucerase alfa, VPRIV®, Shire Human Genetic Therapies, Cambridge, MA) in citric phosphate [0.025 mM] buffer (pH 5.6) where 4-MuGlu [4 mM] was the substrate. Compounds were pre-incubated with the enzyme for 40 minutes at room temperature prior to substrate addition, and then incubated at 37° C. for 1 hour. AC50 represents the concentration of a Compound that produces 50% of its maximal response in the in vitro GCase activity assay.
(§1) GCase activities were determined fluorometrically with 4-MuGlu. The relative fluorescence unit (RFU) of 4-MuGlu standard curve is generated with the plate reader (M5, Molecular Devise) as 1 n mole=56500 RFU. The human mutant Gaucher fibroblasts were purchased from Coriell Institute (Camden, NJ): N370/ΔGG (Cat #: GM00852) and L444P/L444P (cat #: GM00877)

[2] = biological target: T2, GCase in healthy human fibroblasts (Homo sapiens, UniProt P04062); test: EC50 cell-based assay for GCase, healthy human fibroblasts (GCase cell); conditions: 5 days compound treatment (0-20 μM)
T2 construct: Healthy human fibroblasts (GCase cell); endogenous in cells; host or cells: healthy human fibroblasts
T2 sequence (P04062 40-536): T1 sequence (P04062 40-536)
Description: (§2) In cell assays, GCase activity measurements were carried out on harvested cell pellets on the 5th day of Compound treatment. Healthy human fibroblasts (GCase cell), mutant N370/ΔGG (GCase N370S) or L444P/L444P (GCase L444P) were incubated with the Compound (0-20 μM) for 5 days with 15% fetal bovine serum (FBS) in Dulbecco's Modified Eagle Medium (DMEM) in 100 mm culture dishes. Fresh Medium with Compound were replaced every other day. On the 5th day of Compound treatment, harvested cell pellets were lysed with 1% Na-taurocholate (Tc) and 1% Triton X-100 (Tx), and mixed with the reaction buffer which contained 0.025 mM Citric phosphate buffer (pH 5.6), 0.25% Tc/Tx and 4 mM 4-MuGlu, then incubated at 37° C. for 1 hour. EC50 represents the concentration of a Compound that produces 50% of its maximal response in the cell-based GCase activity assay.
as §1

[3] = biological target: T3, GCase N370S (N370/ΔGG human mutant Gaucher fibroblasts) (Homo sapiens, UniProt P04062, N409S); test: EC50 cell-based assay for GCase, mutant N370/ΔGG fibroblasts (GCase N370S); conditions: 5 days compound treatment (0-20 μM)
T3 construct: The human mutant Gaucher fibroblasts were purchased from Coriell Institute; host or cells: human Gaucher fibroblasts N370/ΔGG
T3 sequence (P04062 40-536 N409S): T1 sequence (P04062 40-536) with N370S
Description: as §2, §1

[4] = biological target: T4, GCase L444P (L444P/L444P human mutant Gaucher fibroblasts) (Homo sapiens, UniProt P04062, L483P); test: EC50 cell-based assay for GCase, mutant L444P/L444P fibroblasts (GCase L444P); conditions: 5 days compound treatment (0-20 μM)
T4 construct: The human mutant Gaucher fibroblasts were purchased from Coriell Institute; host or cells: human Gaucher fibroblasts L444P/L444P
T4 sequence (P04062 40-536 L483P): T1 sequence (P04062 40-536) with L444P
Description: as §2, §1

Row | SMILES | AC50 [1] [µM] | EC50 [2] [µM] | EC50 [3] [µM] | EC50 [4] [µM]
1 | CN1CCC(NC(=O)C(C)(C)Oc2ccccc2C(=O)NCC2CCCO2)CC1 (stereo not drawn) [Compound 37, 2-(2-(1-methylpiperidin-4-ylcarbamoyl)propan-2-yloxy)-N-((tetrahydrofuran-2-yl)methyl)benzamide] | < 10 | < 10 | < 10 | < 10
2 | O=C(COc1ccccc1C(=O)NCC1CCO1)Nc1ccc(Br)cc1 (stereo not drawn) [Compound 2, 2-((4-bromophenylcarbamoyl)methoxy)-N-((oxetan-2-yl)methyl)benzamide] | < 10 | 10 to 100 | < 10 | 
3 | O=C(Nc1ccc(O)cc1)c1nc2cc(F)cc(C(=O)NCC3CCO3)c2o1 (stereo not drawn) [Compound 26, 5-fluoro-N2-(4-hydroxyphenyl)-N7-(oxetan-2-ylmethyl)benzo[d]oxazole-2,7-dicarboxamide] | < 10 | < 10 | < 10 | < 10
4 | O=C(Nc1ccc(Br)cc1)c1nc2cccc(C(=O)NCC3CCCO3)c2o1 (stereo not drawn) [Compound 4, N2-(4-bromophenyl)-N7-((tetrahydrofuran-2-yl)methyl)benzo[d]oxazole-2,7-dicarboxamide] | < 10 | < 10 | < 10 | 
5 | CC(C)(Oc1ccc(F)cc1C(=O)NCC1CCO1)C(=O)NCCN1CCOCC1 (stereo not drawn) [Compound 27, 2-[1,1-dimethyl-2-(2-morpholinoethylamino)-2-oxo-ethoxy]-5-fluoro-N-(oxetan-2-ylmethyl)benzamide] | < 10 | < 10 |  | 
6 | COc1ccc(NC(=O)N2Cc3cccc(C(=O)NCC4CCO4)c3C2)cc1Cl (stereo not drawn) [Compound 42, N2-(3-chloro-4-methoxyphenyl)-N4-(oxetan-2-ylmethyl) isoindoline-2,4-dicarboxamide] | < 10 | < 10 |  | 
7 | CC(C)(Oc1ccccc1C(=O)NCC1CCCO1)C(=O)NC1CCOCC1 (stereo not drawn) [Compound 35, 2-[1,1-dimethyl-2-oxo-2-(tetrahydropyran-4-ylamino)ethoxy]-N-(tetrahydrofuran-2-ylmethyl)benzamide] | < 10 | < 10 |  | 
8 | O=C(Nc1ccc(Cl)cc1)c1nc2cc(F)cc(C(=O)NCC3CCO3)c2o1 (stereo not drawn) [Compound 21, N2-(4-chlorophenyl)-5-fluoro-N7-((oxetan-2-yl)methyl)benzo[d]oxazole-2,7-dicarboxamide] | < 10 | < 10 |  | 
9 | COc1ccc(NC(=O)c2nc3cccc(C(=O)NCC4CCCO4)c3o2)cc1 (stereo not drawn) [Compound 8, N7-((tetrahydrofuran-2-yl)methyl)-N2-(4-methoxyphenyl)benzo[d]oxazole-2,7-dicarboxamide] | < 10 | < 10 | < 10 | < 10
10 | O=C(NCC1CCO1)c1cc(F)ccc1OCc1nc2cc(Cl)ccc2[nH]1 (stereo not drawn) [Compound 25, 2-((6-chloro-1H-benzo[d]imidazol-2-yl)methoxy)-5-fluoro-N-((oxetan-2-yl)methyl)benzamide] | < 10 | < 10 |  | 
11 | COc1ccc(NC(=O)c2nc3cc(F)cc(C(=O)NCC4CCO4)c3o2)c(Cl)c1 (stereo not drawn) [Compound 45, N2-(2-chloro-4-methoxyphenyl)-5-fluoro-N7-(oxetan-2-ylmethyl)benzo[d]oxazole-2,7-dicarboxamide] | < 10 | < 10 |  | 
12 | COc1ccc(NC(=O)C(C)(C)Oc2ccc(F)cc2C(=O)NCC2CCCO2)cc1 (stereo not drawn) [Compound 33, 2-(2-(4-methoxyphenylcarbamoyl)propan-2-yloxy)-5-fluoro-N-((tetrahydrofuran-2-yl)methyl)benzamide] | < 10 | < 10 |  | 
13 | Cc1cc(NC(=O)c2nc3cc(F)cc(C(=O)NCC4CCO4)c3o2)ccn1 (stereo not drawn) [Compound 20, 5-fluoro-N2-(2-methylpyridin-4-yl)-N7-((oxetan-2-yl)methyl)benzo[d]oxazole-2,7-dicarboxamide] | < 10 | < 10 |  | 
14 | COc1ccc(NC(=O)C(C)(C)Oc2ccccc2C(=O)N2CCOCC2)cc1 [Compound 7] | < 10 | < 10 |  | 
15 | O=C(NC1CCOCC1)c1nc2cc(F)cc(C(=O)NCC3CCO3)c2o1 (stereo not drawn) [Compound 19, 5-fluoro-N2-(tetrahydro-2H-pyran-4-yl)-N7-((oxetan-2-yl)methyl)benzo[d]oxazole-2,7-dicarboxamide] | < 10 | < 10 |  | 
16 | CC(C)(Oc1ccccc1C(=O)NCC1CCO1)C(=O)NC1CCN(C2COC2)CC1 (stereo not drawn) [Compound 18, 2-[1,1-dimethyl-2-[[1-(oxetan-3-yl)-4-piperidyl]amino]-2-oxo-ethoxy]-N-(oxetan-2-ylmethyl)benzamide] | < 10 | < 10 |  | 
17 | COc1ccc(NC(=O)N2Cc3cccc(C(=O)NCC4CCO4)c3C2)c(Cl)c1 (stereo not drawn) [Compound 43, N2-(2-chloro-4-methoxyphenyl)-N4-(oxetan-2-ylmethyl)isoindoline-2,4-dicarboxamide] | 10 to 100 | < 10 |  | 
18 | COc1ccc(NC(=O)C(C)(C)Oc2ccccc2C(=O)NCC2CCCO2)cc1 (stereo not drawn) [Compound 32, 2-(2-(4-methoxyphenylcarbamoyl)propan-2-yloxy)-N-((tetrahydrofuran-2-yl)methyl)benzamide] | < 10 | < 10 | 10 to 100 | 
19 | O=C(Nc1ccc(OC(F)(F)F)cc1)c1nc2cc(F)cc(C(=O)NCC3CC(F)CO3)c2o1 (stereo not drawn) [Compound 49, 5-fluoro-N7-[(4-fluorotetrahydrofuran-2-yl)methyl]-N2-[4-(trifluoromethoxy)phenyl]-1,3-benzoxazole-2,7-dicarboxamide] | < 10 | < 10 |  | 
20 | COc1ccc(NC(=O)C(C)(C)Oc2ccc(F)cc2C(NCC2CCO2)C(F)(F)F)cc1 (stereo not drawn) [Compound 46, 2-(4-fluoro-2-(2,2,2-trifluoro-1-((oxetan-2-ylmethyl)amino)ethyl)phenoxy)-N-(4-methoxyphenyl)-2-methylpropanamide] | < 10 | < 10 |  | 
21 | COc1ccc(NC(=O)c2nc3cc(F)cc(C(=O)NCC4CCO4)c3o2)cc1 (stereo not drawn) [Compound 13, 5-fluoro-N2-(4-methoxyphenyl)-N7-(oxetan-2-ylmethyl)-1,3-benzoxazole-2,7-dicarboxamide] | < 10 | < 10 |  | 
